{
  "source": "ChEMBL document CHEMBL4251606",
  "about": "“Design and characterization of α-lipoic acyl shikonin ester twin drugs as tubulin and PDK1 dual inhibitors” (Eur J Med Chem, 2018)",
  "key": {"A549": {"system": "A549", "assay": "Antiproliferative activity against human A549 cells after 24 hrs by MTT assay", "assay_type": "functional, cell-based", "conditions": "A549, 24 h"}, "HeLa [1]": {"system": "HeLa", "assay": "Cell cycle arrest in human HeLa cells assessed as accumulation of cells at G2/M phase at 8 uM after 24 hrs by propidium iodide staining-based FACScan flow cytometric analysis (reference value: 16.82%)", "assay_type": "functional"}, "HeLa [2]": {"system": "HeLa", "assay": "Antitumor activity against human HeLa cells xenografted in nude mouse assessed as reduction in tumor size at 2 mg/kg, ip administered once in every 2 days for 15 days relative to control", "assay_type": "functional"}, "HeLa [3]": {"system": "HeLa", "assay": "Induction of apoptosis in human HeLa cells assessed as early apoptotic cells at 6 uM after 12 hrs by Annexin V-APC/propidium iodide staining-based FACScan flow cytometric analysis (reference value: 2.45%)", "assay_type": "functional"}, "HeLa [4]": {"system": "HeLa", "assay": "Cell cycle arrest in human HeLa cells assessed as accumulation of cells at G2/M phase at 4 uM after 24 hrs by propidium iodide staining-based FACScan flow cytometric analysis (reference value: 16.82%)", "assay_type": "functional"}, "HeLa [5]": {"system": "HeLa", "assay": "Induction of apoptosis in human HeLa cells assessed as early apoptotic cells at 2 uM after 24 hrs by Annexin V-APC/propidium iodide staining-based FACScan flow cytometric analysis (reference value: 6.46%)", "assay_type": "functional"}, "HeLa [6]": {"system": "HeLa", "assay": "Cell cycle arrest in human HeLa cells assessed as accumulation of cells at G2/M phase at 2 uM after 24 hrs by propidium iodide staining-based FACScan flow cytometric analysis (reference value: 16.82%)", "assay_type": "functional"}, "HeLa [7]": {"system": "HeLa", "assay": "Induction of apoptosis in human HeLa cells assessed as increase in cleaved PARP expression up to 8 uM after 24 hrs by Western blot analysis", "assay_type": "functional, cell-based"}, "Mus musculus": {"system": "Mus musculus", "assay": "Inhibition of PDK1 in mouse xenografted with human HeLa cells assessed as upregulation of PDH-E1 alpha expression in tumor tissue at 1 to 2 mg/kg, ip administered once in every 2 days for 15 days by immunohistochemistry", "assay_type": "functional, organism-based"}, "HeLa [8]": {"system": "HeLa", "assay": "Induction of apoptosis in human HeLa cells assessed as late apoptotic cells at 2 uM after 24 hrs by Annexin V-APC/propidium iodide staining-based FACScan flow cytometric analysis (reference value: 7.22%)", "assay_type": "functional"}, "HeLa [9]": {"system": "HeLa", "assay": "Antiproliferative activity against human HeLa cells after 24 hrs by MTT assay", "assay_type": "functional, cell-based"}, "HeLa [10]": {"system": "HeLa", "assay": "Induction of apoptosis in human HeLa cells assessed as late apoptotic cells by measuring FL3-H+ cells at 6 uM after 36 hrs by propidium iodide staining-based FACScan flow cytometric analysis (reference value: 2.13%)", "assay_type": "functional"}, "HeLa [11]": {"system": "HeLa", "assay": "Induction of apoptosis in human HeLa cells assessed as necrotic cells at 6 uM after 36 hrs by Annexin V-APC/propidium iodide staining-based FACScan flow cytometric analysis (reference value: 0.725%)", "assay_type": "functional"}, "HeLa [12]": {"system": "HeLa", "assay": "Induction of apoptosis in human HeLa cells assessed as late apoptotic cells by measuring FL3-H+ cells at 4 uM after 12 hrs by propidium iodide staining-based flow cytometric analysis (reference value: 3.66%)", "assay_type": "functional"}, "HeLa [13]": {"system": "HeLa", "assay": "Induction of apoptosis in human HeLa cells assessed as late apoptotic cells by measuring FL3-H+ cells at 1.4 uM after 24 hrs by propidium iodide staining-based FACScan flow cytometric analysis (reference value: 2.14%)", "assay_type": "functional"}, "HeLa [14]": {"system": "HeLa", "assay": "Reduction in lactate production in human HeLa cells at 2 to 8 uM", "assay_type": "functional, cell-based"}, "HeLa [15]": {"system": "HeLa", "assay": "Induction of apoptosis in human HeLa cells assessed as late apoptotic cells by measuring FL3-H+ cells at 0.7 uM after 24 hrs by propidium iodide staining-based FACScan flow cytometric analysis (reference value: 2.14%)", "assay_type": "functional"}, "HeLa [16]": {"system": "HeLa", "assay": "Induction of apoptosis in human HeLa cells assessed as decrease in Bcl2 expression up to 8 uM after 24 hrs by Western blot analysis", "assay_type": "functional, cell-based"}, "HeLa [17]": {"system": "HeLa", "assay": "Inhibition of microtubule polymerization in human HeLa cells at 4 uM after 24 hrs by rhodamine/DAPI staining-based confocal microscopic analysis", "assay_type": "cell-based"}, "[18]": {"target": "[Pyruvate dehydrogenase (acetyl-transferring)] kinase isozyme 1, mitochondrial (Homo sapiens) (UniProt Q15118)", "assay": "Inhibition of PDK1 in human HeLa cells assessed as decrease in PDH-E1 alpha p-ser300 expression at 6 uM by Western blot analysis", "assay_type": "cell-based"}, "HeLa [19]": {"system": "HeLa", "assay": "Induction of apoptosis in human HeLa cells assessed as early apoptotic cells at 6 uM after 24 hrs by Annexin V-APC/propidium iodide staining-based FACScan flow cytometric analysis (reference value: 2.45%)", "assay_type": "functional"}, "HeLa [20]": {"system": "HeLa", "assay": "Induction of apoptosis in human HeLa cells assessed as late apoptotic cells at 4 uM after 24 hrs by Annexin V-APC/propidium iodide staining-based FACScan flow cytometric analysis (reference value: 7.22%)", "assay_type": "functional"}, "HeLa [21]": {"system": "HeLa", "assay": "Reduction in glucose consumption in human HeLa cells at 2 to 8 uM", "assay_type": "functional, cell-based"}, "HeLa [22]": {"system": "HeLa", "assay": "Induction of apoptosis in human HeLa cells assessed as necrotic cells at 2 uM after 24 hrs by Annexin V-APC/propidium iodide staining-based FACScan flow cytometric analysis (reference value: 1.18%)", "assay_type": "functional"}, "[23]": {"target": "[Pyruvate dehydrogenase (acetyl-transferring)] kinase isozyme 1, mitochondrial (Homo sapiens) (UniProt Q15118)", "assay": "Inhibition of PDK1 in human HeLa cells assessed as increase in PDH-E1 alpha expression at 6 uM by Western blot analysis", "assay_type": "cell-based"}, "HeLa [24]": {"system": "HeLa", "assay": "Induction of apoptosis in human HeLa cells assessed as late apoptotic cells by measuring FL3-H+ cells at 5.6 uM after 24 hrs by propidium iodide staining-based FACScan flow cytometric analysis (reference value: 2.14%)", "assay_type": "functional"}, "HeLa [25]": {"system": "HeLa", "assay": "Cell cycle arrest in human HeLa cells assessed as accumulation of cells at S phase at 4 uM after 24 hrs by propidium iodide staining-based FACScan flow cytometric analysis (reference value: 20.16%)", "assay_type": "functional"}, "HeLa [26]": {"system": "HeLa", "assay": "Induction of mitochondrial membrane potential loss in human HeLa cells assessed as increase in green fluorescence at 2 to 4 uM by JC-1 staining-based fluorescence microscopic analysis", "assay_type": "functional, cell-based"}, "HeLa [27]": {"system": "HeLa", "assay": "Induction of apoptosis in human HeLa cells assessed as necrotic cells at 6 uM after 24 hrs by Annexin V-APC/propidium iodide staining-based FACScan flow cytometric analysis (reference value: 0.725%)", "assay_type": "functional"}, "HeLa [28]": {"system": "HeLa", "assay": "Induction of mitochondrial membrane potential loss in human HeLa cells assessed as cells with low membrane potential at 4 uM after 12 hrs by JC-1 staining-based flow cytometric analysis (reference value: 9.31%)", "assay_type": "functional"}, "HeLa [29]": {"system": "HeLa", "assay": "Induction of apoptosis in human HeLa cells assessed as early apoptotic cells at 6 uM after 36 hrs by Annexin V-APC/propidium iodide staining-based FACScan flow cytometric analysis (reference value: 2.45%)", "assay_type": "functional"}, "HEK-293T": {"system": "HEK-293T", "assay": "Antiproliferative activity against human 293T cells after 24 hrs by MTT assay", "assay_type": "cell-based"}, "HeLa [30]": {"system": "HeLa", "assay": "Antitumor activity against human HeLa cells xenografted in nude mouse assessed as increase in mouse survival at 2 mg/kg, ip administered once in every 2 days for 15 days relative to control", "assay_type": "functional, organism-based"}, "[31]": {"target": "[Pyruvate dehydrogenase (acetyl-transferring)] kinase isozyme 1, mitochondrial (Homo sapiens) (UniProt Q15118)", "assay": "Inhibition of PDK1 in human HeLa cells assessed as increase in PDH-E1 alpha expression up to 8 uM by Western blot analysis", "assay_type": "cell-based"}, "HeLa [32]": {"system": "HeLa", "assay": "Induction of apoptosis in human HeLa cells assessed as late apoptotic cells at 6 uM after 36 hrs by Annexin V-APC/propidium iodide staining-based FACScan flow cytometric analysis (reference value: 3.84%)", "assay_type": "functional"}, "HepG2": {"system": "HepG2", "assay": "Antiproliferative activity against human HepG2 cells after 24 hrs by MTT assay", "assay_type": "functional, cell-based", "conditions": "HepG2, 24 h"}},
  "note": "Active and inactive are the calls of the source. The rule behind the calls is not given here.",
  "data": [
    {"compound": "CC(C)=CC[C@@H](OC(=O)CCCC[C@@H]1CCSC(c2ccccc2)S1)C1=CC(=O)c2c(O)ccc(O)c2C1=O", "note": "(stereo partly specified)", "values": [
      {"measurement": "IC50", "setting": "A549", "result": 16.4, "unit": "µM"},
      {"measurement": "Activity", "setting": "HeLa [1]", "result": 52.44, "unit": "%"},
      {"measurement": "fold change (FC)", "setting": "HeLa [2]", "result": 5},
      {"measurement": "Activity", "setting": "HeLa [3]", "result": 19, "unit": "%"},
      {"measurement": "Activity", "setting": "HeLa [4]", "result": 45.2, "unit": "%"},
      {"measurement": "Activity", "setting": "HeLa [5]", "result": 15.5, "unit": "%"},
      {"measurement": "Activity", "setting": "HeLa [6]", "result": 32.67, "unit": "%"},
      {"measurement": "Activity", "setting": "HeLa [7]", "result": "Active"},
      {"measurement": "Activity", "setting": "Mus musculus", "result": "Active"},
      {"measurement": "Activity", "setting": "HeLa [8]", "result": 48.9, "unit": "%"},
      {"measurement": "IC50", "setting": "HeLa [9]", "result": 3.14, "unit": "µM"},
      {"measurement": "Activity", "setting": "HeLa [10]", "result": 55.2, "unit": "%"},
      {"measurement": "Activity", "setting": "HeLa [11]", "result": 5.03, "unit": "%"},
      {"measurement": "Activity", "setting": "HeLa [12]", "result": 4.74, "unit": "%"},
      {"measurement": "Activity", "setting": "HeLa [13]", "result": 30.1, "unit": "%"},
      {"measurement": "Activity", "setting": "HeLa [14]", "result": "Active"},
      {"measurement": "Activity", "setting": "HeLa [15]", "result": 6.4, "unit": "%"},
      {"measurement": "Activity", "setting": "HeLa [16]", "result": "Active"},
      {"measurement": "inhibition", "setting": "HeLa [17]", "result": "Active"},
      {"measurement": "inhibition", "setting": "[18]", "result": "Active"},
      {"measurement": "Activity", "setting": "HeLa [19]", "result": 26.1, "unit": "%"},
      {"measurement": "Activity", "setting": "HeLa [20]", "result": 58.4, "unit": "%"},
      {"measurement": "Activity", "setting": "HeLa [21]", "result": "Active"},
      {"measurement": "Activity", "setting": "HeLa [22]", "result": 11.9, "unit": "%"},
      {"measurement": "inhibition", "setting": "[23]", "result": "Active"},
      {"measurement": "Activity", "setting": "HeLa [24]", "result": 85.2, "unit": "%"},
      {"measurement": "Activity", "setting": "HeLa [25]", "result": 29.06, "unit": "%"},
      {"measurement": "Activity", "setting": "HeLa [26]", "result": "Active"},
      {"measurement": "Activity", "setting": "HeLa [27]", "result": 10, "unit": "%"},
      {"measurement": "Activity", "setting": "HeLa [28]", "result": 82.2, "unit": "%"},
      {"measurement": "Activity", "setting": "HeLa [29]", "result": 45.7, "unit": "%"},
      {"measurement": "IC50", "setting": "HEK-293T", "result": 88.8, "unit": "µM"},
      {"measurement": "Activity", "setting": "HeLa [30]", "result": "Active"},
      {"measurement": "inhibition", "setting": "[31]", "result": "Active"},
      {"measurement": "Activity", "setting": "HeLa [32]", "result": 22.9, "unit": "%"},
      {"measurement": "IC50", "setting": "HepG2", "result": 5.37, "unit": "µM"}
    ]}
  ]
}
